Measured values: US6410054B1, “Immediate release eplerenone compositions” (G. D. Searle & Co., priority 1998, dated 2002)

How the values were obtained:
aldosterone receptors [1] = target: T1, aldosterone receptors (Homo sapiens, UniProt P08235); experiment: Single dose study: antialdosterone activity, urinary sodium and potassium after fludrocortisone; assay type: in vivo, humans; conditions: 50 mg dose
T1 construct: endogenous in cells; host or cells: healthy male human subjects (in vivo)
T1 sequence (P08235 1-984): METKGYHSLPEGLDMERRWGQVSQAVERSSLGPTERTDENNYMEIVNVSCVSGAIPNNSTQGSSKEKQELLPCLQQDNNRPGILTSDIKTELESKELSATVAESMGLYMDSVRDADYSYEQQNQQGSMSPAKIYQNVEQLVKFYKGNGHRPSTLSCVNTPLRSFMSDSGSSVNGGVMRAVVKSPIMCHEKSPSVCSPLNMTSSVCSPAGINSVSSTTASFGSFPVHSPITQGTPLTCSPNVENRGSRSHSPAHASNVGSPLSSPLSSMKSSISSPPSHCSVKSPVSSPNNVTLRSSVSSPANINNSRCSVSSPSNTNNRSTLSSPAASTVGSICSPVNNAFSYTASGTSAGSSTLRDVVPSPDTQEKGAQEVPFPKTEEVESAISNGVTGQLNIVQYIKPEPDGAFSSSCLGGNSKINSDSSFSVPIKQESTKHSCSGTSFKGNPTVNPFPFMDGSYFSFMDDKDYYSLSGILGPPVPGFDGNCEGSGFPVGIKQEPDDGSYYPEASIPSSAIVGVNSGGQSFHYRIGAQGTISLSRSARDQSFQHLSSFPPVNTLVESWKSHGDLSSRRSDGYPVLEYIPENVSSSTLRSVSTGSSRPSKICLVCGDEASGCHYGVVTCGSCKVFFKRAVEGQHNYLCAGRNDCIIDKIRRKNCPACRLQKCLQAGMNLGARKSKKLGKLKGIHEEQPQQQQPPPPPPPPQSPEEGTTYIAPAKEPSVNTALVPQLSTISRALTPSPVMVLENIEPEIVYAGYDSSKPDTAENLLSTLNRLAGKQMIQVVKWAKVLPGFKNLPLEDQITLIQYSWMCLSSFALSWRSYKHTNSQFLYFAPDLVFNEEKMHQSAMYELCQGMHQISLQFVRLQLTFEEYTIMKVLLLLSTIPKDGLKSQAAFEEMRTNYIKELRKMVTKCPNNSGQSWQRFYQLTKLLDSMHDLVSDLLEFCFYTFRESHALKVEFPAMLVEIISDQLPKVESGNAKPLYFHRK
Description: Antialdosterone activity was determined based on urine levels of sodium and potassium following repeated administration of fludrocortisone. Safety was determined on the basis of laboratory tests, vital signs, and the occurrence and types of adverse events.
(§1) The subjects, who underwent a ten hour food fast prior to administration of the dose, received a single oral dose of one of the study medications together with about 180 mL of water at 0800 hours. […] Each dose of fludrocortisone was administered with 150 mL of water except for the 1.0 mg dose which was administered with 200 mL of water.
(§2) The plasma samples collected from subjects dosed with eplerenone were assayed for concentrations of eplerenone and the open lactone ring form of eplerenone. […] A subset of plasma samples was also assayed for testosterone levels. The urine collected was analyzed to determine concentrations and amounts of eplerenone and the open lactone ring form of eplerenone, the amount of sodium and potassium excreted, and the urinary log10 (sodium/potassium) ratio.

renin and aldosterone = experiment: Treatment of hypertension study: plasma renin and serum aldosterone; assay type: in vivo, humans
Description: The safety and efficacy of a range of doses of eplerenone in the treatment of hypertension relative to placebo were evaluated in a multi-center, randomized, double-blind, placebo-lead-in, parallel group study. […] Four hundred and seventeen patients were randomized to one of eight treatments: (i) placebo BID; […] (iv) eplerenone 400 mg QD; (v) eplerenone 25 mg BID; […] The primary efficacy variable was the change in cuff diastolic blood pressure (ADBP; sitting) measured at trough plasma levels after eight weeks of double blind treatment. The secondary variables measured were the change in trough cuff systolic blood pressure (ΔSBP; sitting), change in 24 hour mean diastolic blood pressure (ΔDBP), and change in 24 hour mean systolic blood pressure (ΔSBP). […] Changes in plasma renin and serum aldosterone after eight weeks of dosing were also analyzed as secondary measures of efficacy.

[2] = Single dose study: plasma pharmacokinetics of eplerenone, open lactone ring form, spironolactone
Description: The pharmacokinetics, safety and antialdosterone activity of single 10, 50, 100, 300 and 1000 mg oral doses of eplerenone were evaluated in a single-center, randomized, double-blind, placebo-controlled study.
The study employed seven parallel dose groups of eight healthy male humans.
The eplerenone capsules administered corresponded to the capsules (or combinations of the capsules) disclosed in Examples 4, 5, 7 and 8 above. The placebo was a conventional capsule containing lactose. […] The fludrocortisone used in the study consisted of commercially available fludrocortisone tablets (Florinef®, Squibb BV).
as §1, §2

blood pressure = experiment: Treatment of hypertension study: blood pressure; assay type: in vivo, humans; conditions: 50 mg BID; eight weeks
Description: The safety and efficacy of a range of doses of eplerenone in the treatment of hypertension relative to placebo were evaluated in a multi-center, randomized, double-blind, placebo-lead-in, parallel group study. […] The primary efficacy variable was the change in cuff diastolic blood pressure (ADBP; sitting) measured at trough plasma levels after eight weeks of double blind treatment. The secondary variables measured were the change in trough cuff systolic blood pressure (ΔSBP; sitting), change in 24 hour mean diastolic blood pressure (ΔDBP), and change in 24 hour mean systolic blood pressure (ΔSBP). The primary and secondary efficacy variables were analyzed to compare BID versus QD dosing regimens for each eplerenone dose group, and both eplerenone and spironolactone versus placebo. Changes in plasma renin and serum aldosterone after eight weeks of dosing were also analyzed as secondary measures of efficacy.
The specific pharmaceutical compositions of each eplerenone capsule are reported in Examples 5, 6, 7 and 8. The placebo was a conventional capsule containing lactose.

aldosterone receptors [3] = target: T1, aldosterone receptors; experiment: Multiple dose study: antialdosterone activity, urinary log10 (sodium/potassium); assay type: in vivo, humans; conditions: multiple dose administration
Description: Multiple oral dose tolerability and the pharmacokinetics of several dosages of eplerenone were evaluated in a double-blind, randomized, placebo-controlled, rising oral dose, sequential panel study of 40 healthy male subjects (five groups of eight subjects). The study medication was administered in three sequential dose panels, with each panel including eplerenone, spironolactone and placebo. […] The 100 mg and 200 mg dose capsules corresponded to those described in Examples 7 and 8, respectively. […] Antialdosterone activity was determined following a fludrocortisone challenge on Days 12-13.

## CC(=O)S[C@@H]1CC2=CC(=O)CC[C@]2(C)[C@H]2CC[C@@]3(C)[C@@H](CC[C@@]34CCC(=O)O4)[C@H]12 [spironolactone, Spironolactone, reference compound]
Aldosterone receptors [1]; 0 to 2 hours
  Urinary Potassium Excretion: 7.5 mmol
  Urinary Sodium Excretion: 4.1 mmol
Aldosterone receptors [1]; 2 to 4 hours
  Urinary Potassium Excretion: 11.8 mmol
  Urinary Sodium Excretion: 8.5 mmol
Aldosterone receptors [1]; 4 to 6 hours
  Urinary Potassium Excretion: 10.2 mmol
  Urinary Sodium Excretion: 9.4 mmol
Aldosterone receptors [1]; 6 to 8 hours
  Urinary Potassium Excretion: 13.3 mmol
  Urinary Sodium Excretion: 14.8 mmol
Aldosterone receptors [1]; 8 to 10 hours
  Urinary Potassium Excretion: 17.9 mmol
  Urinary Sodium Excretion: 13.4 mmol
Aldosterone receptors [1]; 10 to 12 hours
  Urinary Potassium Excretion: 12.5 mmol
  Urinary Sodium Excretion: 8.4 mmol
Aldosterone receptors [1]; 12 to 14 hours
  Urinary Potassium Excretion: 20.6 mmol
  Urinary Sodium Excretion: 11.5 mmol
Aldosterone receptors [1]; 14 to 16 hours
  Urinary Potassium Excretion: 11.4 mmol
  Urinary Sodium Excretion: 5.9 mmol
Aldosterone receptors [1]; 16 to 24 hours
  Urinary Potassium Excretion: 27.9 mmol
  Urinary Sodium Excretion: 11.8 mmol
Aldosterone receptors [1]; −9 to 0 hours
  Urinary Potassium Excretion: 26.9 mmol
  Urinary Sodium Excretion: 29.1 mmol
Renin and aldosterone; 50 mg BID
  Plasma Renin Active Mean Change From Baseline: 13.3 mU/L
  Serum Aldosterone Mean Change From Baseline: 19.2 ng/dL
Renin and aldosterone; eight weeks of dosing
  aldosterone compared to placebo: increases
  total and active renin levels: increases
[2]; 50 mg single oral dose, -0.25 h (predose)
  Plasma Concentration Of Spironolactone: 0 ng/mL
[2]; male, human, plasma, po, 50 mg
  concentration at 0.5 h: 10.5 ng/mL
  concentration at 1 h: 23.6 ng/mL
  concentration at 2 h: 14.4 ng/mL
  concentration at 3 h: 14.3 ng/mL
  concentration at 4 h: 4.8 ng/mL
  concentration at 6 h: 0 ng/mL
  concentration at 8 h: 0 ng/mL
  concentration at 12 h: 0 ng/mL
  concentration at 16 h: 0 ng/mL
  concentration at 24 h: 0 ng/mL
  concentration at 28 h: 0 ng/mL
  concentration at 32 h: 0 ng/mL
  concentration at 48 h: 0 ng/mL
  concentration at 72 h: 0 ng/mL
  concentration at 96 h: 0 ng/mL
Blood pressure
  24 hour mean ΔDBP: −8.9 mmHg
  24 hour mean ΔSBP: −15.7 mmHg
  Primary Efficacy Variable: ΔDBP at trough (sitting): −9.5 mmHg
  ΔSBP at trough (sitting): −17.6 mmHg
Aldosterone receptors [3]
  urinary log10 (sodium/potassium) values: no sustained increase
